The target in this experiment is Lysine-specific histone demethylase 1A (Homo sapiens, UniProt O60341). The experiment in a line: LANCE LSD1/KDM1A Demethylase Assay: 10 μL of 1 nM LSD-1 enzyme (ENZO BML-SE544-0050) in the assay buffer (50 mM Tris, pH 7.5, 0.01% Tween-20, 25 mM NaCl, 5 mM DTT) were preincubated for 1 hour at 25° C. with 0.8 μL compound/DMSO dotted in black 384 well polystyrene plates. Reactions were started by addition of 10 μL of assay buffer containing […] Biotin-labeled Histone H3 peptide substrate: ART-K(Me1)-QTARKSTGGKAPRKQLA-GGK(Biotin) SEQ ID NO:1 (AnaSpec 64355) and incubated for 1 hour at 25° C. Reactions were stopped by addition of 10 μL 1× LANCE Detection Buffer (PerkinElmer CR97-100) supplemented with 1.5 nM Eu-anti-unmodified H3K4 Antibody (PerkinElmer TRF0404), and 225 nM LANCE Ultra Streptavidin (PerkinElmer TRF102) along with 0.9 mM Tranylcypromine-HCl (Millipore 616431). After stopping the reactions plates were incubated for 30 minutes and read on a PHERAstar FS plate reader (BMG Labtech).

In general, IC50 refers to the point on the concentration scale where inhibition reaches its midpoint. Regarding `COC(=O)N(C)c1cc(-c2c(-c3ccc(C#N)cc3)nc(OC[C@@H]3CCCN(C)C3)c3nccn23)ccc1C`, the IC50 was under 50 nM.

(Values after ChEMBL document CHEMBL5725316, “Substituted imidazo[1,2-a]pyrazines as LSD1 inhibitors” (2017).)
